# Experimental data published in patent US8748398B2, “Stroke-targeting peptide and use thereof” (Kyungpook National University Industry-Academic Cooperation …, priority 2008, dated 2014).
# Where no end group is shown, it is not given here.
# Experiments:
# [1] = system: ipsilateral (ischemic) hemisphere of a brain; assay: In vivo screening of phage-displayed CX7C peptide library, frequency of selected clones; conditions: 30 phage clones randomly selected in second and third rounds, rat with occluded MCA
# [2] = system: β-tubulin-positive neuron cell and GFAP-positive astrocyte in the ischemic brain tissue; assay: Immunofluorescence staining for the type of cells bound to the peptide (anti-tubulin, anti-GFAP); assay type: in vivo, rat; conditions: 24 hours after ischemic injury
# [3] = system: ischemic stroke tissue; assay: In vivo targeting of fluorescein-labeled peptide, fluorescence microscopy of frozen sections with TTC and TUNEL staining; parameters: species or system rat; conditions: for targeting to the contralateral tissue / targeting to the ipsilateral tissue: fluorescein peptide into left ventricle 24 hours after ischemic injury
# [4] = system: ischemic stroke tissue; assay: Autoradiogram of absorption of 131I-labeled peptide in ischemic stroke tissue; assay type: in vivo, rat
# [5] = tail vein 24 hours after ischemic injury, 1-hour circulation
Substance,Frequency (%) [1],Frequency (clones with the sequence / clones sequenced) [1],targeting to the contralateral tissue ([3]; 15-minute circulation),targeting to the ipsilateral tissue ([3]; 15-minute circulation),further results
CKRGGATAC (Stroke-targeting peptide 2),(23%),7/30,,,
CLEVSRKNC (Stroke-targeting peptide 1),(30%),9/30,not targeted to the contralateral tissue,targeted to the ipsilateral tissue,"co-localisation with GFAP-positive astrocyte in the ischemic brain tissue [2]: did not correspond; co-localisation with β-tubulin-positive neuron cell in the ischemic brain tissue [2]: corresponded to the position of β-tubulin-positive neuron cell; targeting in a neuron cell and an astrocyte in the contralateral brain tissue [2]: not observed; targeting to the ischemic hemisphere ([3]; 2-hour circulation (data not noted)): targeted to the ischemic hemisphere; targeting to control group organs (spleen, liver, lung) ([3]; 15-minute circulation): little; region of the stroke tissue where targeting was observed ([3]; 15-minute circulation, TTC staining): observed in a penumbra; binding to TUNEL-stained apoptotic cells in the penumbra ([3]; TUNEL staining of frozen sections): most of the apoptotic cells stained with TUNEL, except for some of them, were bound"
"CNSREVLKC [CNSREVLKC peptide, reference compound]",,,not observed,not observed,
CRSAVAKNC (Stroke-targeting peptide 3),(17%),5/30,,,
CTKRNAPDC (Stroke-targeting peptide 4),(10%),3/30,,,
^131I-CLEVSRKNC peptide: CLEVSRKNC peptide (SEQ ID NO: 1) labeled with radioisotope 131I (cysteine pairing not given here; also: 131I radiolabel),,,,,"absorption in a general brain of a control group rat ([4]; 1-hour circulation): insufficient; absorption rate by optically stimulated luminescence ([4]; 4 coronal sections, third day vs first and seventh day, P<0.01): very high absorption rate on the third day; time course of absorption in ischemic tissue after ischemic injury ([4]; first, third and seventh day after ischemic injury): reached a peak on the third day; absorption in the contralateral region [4, 5]: insufficient; absorption in the ipsilateral hemisphere [4, 5]: observed in the ipsilateral hemisphere"
